What was measured:
[1] = Comparison between stabilizing reagents, lyophilized ceftolozane samples stored at 60° C. for 7 days, HPLC purity; assay type: physicochemical; settings: without any stabilizing agent
[2] = Residual rate of ceftolozane without stabilizing agent after 3 days at 70° C., HPLC; assay type: physicochemical; settings: 100 mg of ceftolozane, no stabilizing agent
Description: The purity of the ceftolozane in a composition comprising 100 mg ceftolozane was also evaluated with no stabilizing agent after 3 days at 70° C. by measuring the residual rate. The residual rate is measured by detecting the amount of ceftolozane in a sample before and after a stability test using HPLC, and determining the percentage of ceftolozane lost during the stability test.

Which “overall decrease in purity” value [1] does the source give for `Cn1c(N)c(NC(=O)NCCN)c[n+]1CC1=C(C(=O)[O-])N2C(=O)[C@@H](NC(=O)/C(=N\OC(C)(C)C(=O)O)c3nsc(N)n3)[C@H]2SC1` [Ceftolozane, (6R,7R)-3-[(5-amino-4-{[(2-aminoethyl)carbamoyl]amino}-1-methyl-1H-pyrazol-2-ium-2-yl)methyl]-7-({(2Z)-2-(5-amino-1,2,4-thiadiazol-3-yl)-2-[(1-carboxy-1-methylethoxy)imino]acetyl}amino)-8-oxo-5-thia-1-azabicyclo[4.2.0]oct-2-ene-2-carboxylate] here?
Its value is 5.88%.

And the residual rate [2]?
The residual rate was 51.2%.

From US20140274995A1, “PARENTERAL CEFTOLOZANE ANTIBIOTIC COMPOSITIONS” (Cubist Pharmaceuticals, Inc., priority 2013, published 2014)
